Test system: 843782-103-R-J1-PDC complex spheroid viability
Assay: Anticancer human tumor 843782-103-R-J1-PDC patient-derived lung adenocarcinoma cell line growth inhibition [RAS]
Conditions: for IC50: curve of first compound; for viability, T/C: stronger effect = lower value; active = viability on the fitted dose curve at most 10% of control; inactive = the rest
Summary of the method: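 Agents were tested in combination matrices in half-log decrements from a top concentration at or near clinical Cmax (10 microM if undetermined). Targets were multi-cell spheroids of tumour lines plus HUVEC and MSC stromal cells.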

[1] = second compound 0.00316 µM, first compound 0.0316 µM
[2] = second compound 0.00316 µM, first compound 0.1 µM
[3] = second compound 0.00316 µM, first compound 0.316 µM
[4] = second compound 0.00316 µM, first compound 1 µM
[5] = second compound 0.00316 µM, first compound 3.16 µM
[6] = second compound 0.00316 µM, first compound 10 µM
[7] = second compound 0.01 µM, first compound 0.0316 µM
[8] = second compound 0.01 µM, first compound 0.1 µM
[9] = second compound 0.01 µM, first compound 0.316 µM
[10] = second compound 0.01 µM, first compound 1 µM
[11] = second compound 0.01 µM, first compound 3.16 µM
[12] = second compound 0.01 µM, first compound 10 µM
[13] = second compound 0.0316 µM, first compound 0.0316 µM
[14] = second compound 0.0316 µM, first compound 0.1 µM
[15] = second compound 0.0316 µM, first compound 0.316 µM
[16] = second compound 0.0316 µM, first compound 1 µM
[17] = second compound 0.0316 µM, first compound 3.16 µM
[18] = second compound 0.0316 µM, first compound 10 µM
[19] = second compound 0.1 µM, first compound 0.0316 µM
[20] = second compound 0.1 µM, first compound 0.1 µM
[21] = second compound 0.1 µM, first compound 0.316 µM
[22] = second compound 0.1 µM, first compound 1 µM
[23] = second compound 0.1 µM, first compound 3.16 µM
[24] = second compound 0.1 µM, first compound 10 µM
[25] = second compound 0.316 µM, first compound 0.0316 µM
[26] = second compound 0.316 µM, first compound 0.1 µM
[27] = second compound 0.316 µM, first compound 0.316 µM
[28] = second compound 0.316 µM, first compound 1 µM
[29] = second compound 0.316 µM, first compound 3.16 µM
[30] = second compound 0.316 µM, first compound 10 µM
[31] = second compound 1 µM, first compound 0.0316 µM
[32] = second compound 1 µM, first compound 0.1 µM
[33] = second compound 1 µM, first compound 0.316 µM
[34] = second compound 1 µM, first compound 1 µM
[35] = second compound 1 µM, first compound 3.16 µM
[36] = second compound 1 µM, first compound 10 µM
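Note: viability read after seven days of compound exposure.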

CC(=O)OC12COC1CC(O)C1(C)C(=O)C(O)C3=C(C)C(OC(=O)C(O)C(NC(=O)OC(C)(C)C)c4ccccc4)CC(O)(C(OC(=O)c4ccccc4)C21)C3(C)C (stereo not drawn) + C=CC(=O)N1CCN(c2nc(OCC3CCCN3C)nc3c(F)c(-c4nc(N)cc(C)c4C(F)(F)F)c(Cl)cc23)C(C)C1
active: viability, T/C [1] 3.83% | viability, T/C [2] 3.97% | viability, T/C [3] 4.72% | viability, T/C [4] 5.04% | viability, T/C [5] 6.7% | viability, T/C [6] 7.46% | viability, T/C [7] 3.55% | viability, T/C [8] 5.26% | viability, T/C [9] 5.77% | viability, T/C [10] 5.45% | viability, T/C [11] 4.97% | viability, T/C [12] 8.21% | viability, T/C [13] 4.29% | viability, T/C [14] 4.99% | viability, T/C [15] 5.82% | viability, T/C [16] 4.83% | viability, T/C [17] 5.52% | viability, T/C [18] 6.14% | viability, T/C [19] 4.07% | viability, T/C [20] 4.89% | viability, T/C [21] 5.53% | viability, T/C [22] 6.37% | viability, T/C [23] 3.49% | viability, T/C [24] 6.77% | viability, T/C [25] 3.97% | viability, T/C [26] 3.89% | viability, T/C [27] 3.73% | viability, T/C [28] 5.43% | viability, T/C [29] 5.26% | viability, T/C [30] 7.59% | viability, T/C [31] 4.07% | viability, T/C [32] 3.8% | viability, T/C [33] 4.24% | viability, T/C [34] 3.62% | viability, T/C [35] 4.03% | viability, T/C [36] 7.53%
< 31.6 nM: IC50 (second compound 0.00316 µM) | IC50 (second compound 0.01 µM) | IC50 (second compound 0.0316 µM) | IC50 (second compound 0.1 µM) | IC50 (second compound 0.316 µM) | IC50 (second compound 1 µM)

CCc1c2c(nc3ccc(O)cc13)-c1cc3c(c(=O)n1C2)COC(=O)[C@]3(O)CC + C=CC(=O)N1CCN(c2nc(OCC3CCCN3C)nc3c(F)c(-c4nc(N)cc(C)c4C(F)(F)F)c(Cl)cc23)C(C)C1
1.52 nM: IC50 (second compound 0.01 µM) | IC50 (second compound 1 µM)
active: viability, T/C (second compound 0.00316 µM, first compound 0.00949 µM) 6.35% | viability, T/C (second compound 0.00316 µM, first compound 0.03 µM) 2.5% | viability, T/C (second compound 0.00316 µM, first compound 0.0949 µM) 1.18% | viability, T/C (second compound 0.00316 µM, first compound 0.3 µM) 0.74% | viability, T/C (second compound 0.01 µM, first compound 0.00949 µM) 8.52% | viability, T/C (second compound 0.01 µM, first compound 0.03 µM) 3.04% | viability, T/C (second compound 0.01 µM, first compound 0.0949 µM) 0.93% | viability, T/C (second compound 0.01 µM, first compound 0.3 µM) 0.76% | viability, T/C (second compound 0.0316 µM, first compound 0.00949 µM) 7.44% | viability, T/C (second compound 0.0316 µM, first compound 0.03 µM) 2.35% | viability, T/C (second compound 0.0316 µM, first compound 0.0949 µM) 1.24% | viability, T/C (second compound 0.0316 µM, first compound 0.3 µM) 0.8% | viability, T/C (second compound 0.1 µM, first compound 0.00949 µM) 7.09% | viability, T/C (second compound 0.1 µM, first compound 0.03 µM) 1.96% | viability, T/C (second compound 0.1 µM, first compound 0.0949 µM) 1.46% | viability, T/C (second compound 0.1 µM, first compound 0.3 µM) 0.64% | viability, T/C (second compound 0.316 µM, first compound 0.00949 µM) 7.83% | viability, T/C (second compound 0.316 µM, first compound 0.03 µM) 2.85% | viability, T/C (second compound 0.316 µM, first compound 0.0949 µM) 1.34% | viability, T/C (second compound 0.316 µM, first compound 0.3 µM) 0.99% | viability, T/C (second compound 1 µM, first compound 0.00949 µM) 7.99% | viability, T/C (second compound 1 µM, first compound 0.03 µM) 3.23% | viability, T/C (second compound 1 µM, first compound 0.0949 µM) 1.57% | viability, T/C (second compound 1 µM, first compound 0.3 µM) 0.98%
1.67 nM: IC50 (second compound 0.00316 µM)
inactive: viability, T/C (second compound 0.00316 µM, first compound 0.000949 µM) 80.4% | viability, T/C (second compound 0.00316 µM, first compound 0.003 µM) 18.2% | viability, T/C (second compound 0.01 µM, first compound 0.000949 µM) 72.8% | viability, T/C (second compound 0.01 µM, first compound 0.003 µM) 16.8% | viability, T/C (second compound 0.0316 µM, first compound 0.000949 µM) 72.6% | viability, T/C (second compound 0.0316 µM, first compound 0.003 µM) 19.5% | viability, T/C (second compound 0.1 µM, first compound 0.000949 µM) 73.6% | viability, T/C (second compound 0.1 µM, first compound 0.003 µM) 18.1% | viability, T/C (second compound 0.316 µM, first compound 0.000949 µM) 70.7% | viability, T/C (second compound 0.316 µM, first compound 0.003 µM) 21.1% | viability, T/C (second compound 1 µM, first compound 0.000949 µM) 67.7% | viability, T/C (second compound 1 µM, first compound 0.003 µM) 24.5%
1.56 nM: IC50 (second compound 0.0316 µM) | IC50 (second compound 0.1 µM)
1.54 nM: IC50 (second compound 0.316 µM)

NC1c2ccccc2OC12CCN(c1cnc3c(N4CCCc5ncccc54)n[nH]c3n1)CC2 (stereo not drawn) + C=CC(=O)N1CCN(c2nc(OCC3CCCN3C)nc3c(F)c(-c4nc(N)cc(C)c4C(F)(F)F)c(Cl)cc23)C(C)C1
44.1 nM: IC50 (second compound 0.316 µM)
inactive: viability, T/C [1] 58.4% | viability, T/C [2] 35.8% | viability, T/C [3] 30.5% | viability, T/C [4] 23.7% | viability, T/C [5] 30.8% | viability, T/C [6] 16.8% | viability, T/C [7] 49.1% | viability, T/C [8] 35.5% | viability, T/C [9] 28.5% | viability, T/C [10] 22.8% | viability, T/C [11] 20.3% | viability, T/C [12] 20.2% | viability, T/C [13] 44.9% | viability, T/C [14] 34.4% | viability, T/C [15] 30.4% | viability, T/C [16] 25.6% | viability, T/C [17] 24.7% | viability, T/C [18] 21.3% | viability, T/C [19] 55% | viability, T/C [20] 34% | viability, T/C [21] 28.2% | viability, T/C [22] 26.2% | viability, T/C [23] 22.9% | viability, T/C [24] 15% | viability, T/C [25] 54.4% | viability, T/C [26] 39.8% | viability, T/C [27] 29.7% | viability, T/C [28] 23.1% | viability, T/C [29] 20.9% | viability, T/C [30] 22.1% | viability, T/C [31] 52.1% | viability, T/C [32] 38.3% | viability, T/C [33] 25.2% | viability, T/C [34] 25.4% | viability, T/C [35] 25.3% | viability, T/C [36] 18%
39.9 nM: IC50 (second compound 0.1 µM)
< 31.6 nM: IC50 (second compound 0.01 µM) | IC50 (second compound 0.0316 µM)
49.3 nM: IC50 (second compound 0.00316 µM)
37.2 nM: IC50 (second compound 1 µM)

Nc1ccn(C2OC(CO)C(O)C2(F)F)c(=O)n1 (stereo not drawn) + C=CC(=O)N1CCN(c2nc(OCC3CCCN3C)nc3c(F)c(-c4nc(N)cc(C)c4C(F)(F)F)c(Cl)cc23)C(C)C1
34.4 nM: IC50 (second compound 0.01 µM)
25.4 nM: IC50 (second compound 0.0316 µM)
20 nM: IC50 (second compound 1 µM)
23.7 nM: IC50 (second compound 0.00316 µM)
inactive: viability, T/C (second compound 0.00316 µM, first compound 0.00316 µM) 89.9% | viability, T/C (second compound 0.00316 µM, first compound 0.01 µM) 89.7% | viability, T/C [1] 36.7% | viability, T/C (second compound 0.01 µM, first compound 0.00316 µM) 90.6% | viability, T/C (second compound 0.01 µM, first compound 0.01 µM) 87.7% | viability, T/C [7] 53.7% | viability, T/C (second compound 0.0316 µM, first compound 0.00316 µM) 88.7% | viability, T/C (second compound 0.0316 µM, first compound 0.01 µM) 86.3% | viability, T/C [13] 41.4% | viability, T/C (second compound 0.1 µM, first compound 0.00316 µM) 96.5% | viability, T/C (second compound 0.1 µM, first compound 0.01 µM) 82.5% | viability, T/C [19] 34.6% | viability, T/C (second compound 0.316 µM, first compound 0.00316 µM) 89.9% | viability, T/C (second compound 0.316 µM, first compound 0.01 µM) 82.8% | viability, T/C [25] 37.8% | viability, T/C (second compound 1 µM, first compound 0.00316 µM) 93% | viability, T/C (second compound 1 µM, first compound 0.01 µM) 80% | viability, T/C [31] 30.3%
23.1 nM: IC50 (second compound 0.316 µM)
active: viability, T/C [2] 3.04% | viability, T/C [3] 1.74% | viability, T/C [4] 2.04% | viability, T/C [8] 3.4% | viability, T/C [9] 1.89% | viability, T/C [10] 1.3% | viability, T/C [14] 4.87% | viability, T/C [15] 1.41% | viability, T/C [16] 1.39% | viability, T/C [20] 2.56% | viability, T/C [21] 1.84% | viability, T/C [22] 1.83% | viability, T/C [26] 4.66% | viability, T/C [27] 1.55% | viability, T/C [28] 1.83% | viability, T/C [32] 4.7% | viability, T/C [33] 1.55% | viability, T/C [34] 1.67%
21.7 nM: IC50 (second compound 0.1 µM)
